Experiment: refractive index (Na D-line) (dimensionless); wn = mass fraction of the nth substance listed
Conditions: 101.33 kPa, Liquid, Standard Abbe refractometry

CC(O)CO (configuration not stated) [1,2-propanediol] + O
refractive index
Conditions	278.15 K	283.15 K	288.15 K	293.15 K	298.15 K	303.15 K	308.15 K	313.15 K	318.15 K
w1 = 0.0988	1.3458	1.3454	1.3449	1.3444	1.3432	1.3432	1.3424	1.3416	1.3408
w1 = 0.198	1.3578	1.3571	1.3564	1.3557	1.355	1.3542	1.3534	1.3534	1.3516
w1 = 0.3312	1.374	1.373	1.372	1.371	1.3699	1.3689	1.368	1.3671	1.366
w1 = 0.5005	1.3946	1.3932	1.3918	1.3903	1.3889	1.3874	1.3862	1.3851	1.384
w1 = 0.672	1.4112	1.4098	1.4084	1.4069	1.4054	1.4039	1.4024	1.4008	1.3994
w1 = 0.8044	1.4231	1.4216	1.42	1.4184	1.4168	1.415	1.4135	1.4119	1.4103
w1 = 0.9481	1.4343	1.4328	1.4312	1.4296	1.428	1.4264	1.4248	1.4231	1.4214
w1 = 1	1.438	1.4364	1.4348	1.4332	1.4315	1.4299	1.4281	1.4264	1.4247

OCCCO [propan-1,3-diol] + O
refractive index
Conditions	w1 = 0.1113	w1 = 0.2226	w1 = 0.334	w1 = 0.4453	w1 = 0.501	w1 = 0.6123	w1 = 0.7236	w1 = 0.8349	w1 = 0.9277	w1 = 1
278.15 K	1.3466	1.3599	1.374	1.3866	1.3931	1.4066	1.4181	1.4289	1.4371	1.4436
283.15 K	1.3462	1.3592	1.3729	1.3856	1.3921	1.4055	1.4169	1.4276	1.4358	1.4423
288.15 K	1.3457	1.3586	1.3719	1.3845	1.391	1.4041	1.4157	1.4263	1.4345	1.4409
293.15 K	1.3452	1.3579	1.371	1.3835	1.3899	1.4029	1.4145	1.425	1.4332	1.4395
298.15 K	1.3446	1.3572	1.3702	1.3825	1.3888	1.4015	1.4133	1.4237	1.4319	1.4381
303.15 K	1.344	1.3564	1.3693	1.3815	1.3876	1.4002	1.4118	1.4224	1.4304	1.4368
308.15 K	1.3434	1.3558	1.3684	1.3804	1.3865	1.3989	1.4103	1.4211	1.4289	1.4354
313.15 K	1.3426	1.355	1.3676	1.3793	1.3854	1.3977	1.4089	1.4197	1.4275	1.434
318.15 K	1.3418	1.3541	1.3668	1.3782	1.3845	1.3965	1.4075	1.4182	1.4261	1.4325

Reference: the NIST ThermoML archive (doi:10.1021/acs.jced.8b00403)
